# According to PMC11206695, “Chemical Behavior and Bioactive Properties of Spinorphin Conjugated to 5,5′-Dimethyl- and 5,5′-Diphenylhydantoin Analogs” (Pharmaceuticals, 2024):
# Marks after values point to notes of the source that are not given here.
# Key:
# [1] = Potentiometric titration for pK and pI; assay type: physicochemical; conditions: 12 µmol peptide, room temperature
# Description: Potentiometric titrations were performed to determine acid–base constants at room temperature using a potentiometric cell with a combined glass electrode and OMINS titration system (Metrohm). An OMNIS Digital Burette with an accuracy of ±0.01 mL was used to precisely add the titrant portions to the titrated aliquot (12 µmol) of the stock solution of the peptide compounds. The potentiometric titration results were processed mathematically to construct the titration curves and calculate the acid–base constants according to […] [16]. Isoelectric points correspond to pH points where the analyte and titrant interact in equimolar amounts (pH at the equivalence point).
# [2] = tested on: psychomotor seizures (6-Hz test) in mice; assay: 6-Hz test; assay type: in vivo; conditions: i.c.v.; for No. of Animals Protected/No. of Animals Tested: 10 min after infusion
# Description: (§1) The spinorphin peptide analogues (S, Dm-S, Dm-S5, and Dm-S6 or PhS, PhS5, and PhS6) were administered intracerebroventricularly (i.c.v.) (10 μL/ventricle) at doses of 0.6, 1.2, and 2.4 μg, respectively, using a 28-gauge stainless-steel needle attached to a 50-μL Hamilton® syringe as previously described. The matched group (control) was treated with a vehicle. The seizure test was performed 10 min after the i.c.v. infusion.
# 6-Hz test. Psychomotor seizures were induced by corneal electrodes (constant current shock generator, 32 mA, 6 Hz, 3 s) as previously described. The return to a normal position, 10 s after stimulation, was used as a criterion for protection against psychomotor seizures.
# [3] = tested on: ivPTZ-induced myoclonic, clonic and tonic seizures in mice; assay: Intravenous pentylenetetrazole seizure (ivPTZ) test; assay type: in vivo; conditions: i.c.v., doses of 0.62 µg and 1.25 µg, vs. vehicle-infused control (p < 0.05; p < 0.01)
# Description: as §1
# Intravenous Pentylenetetrazole Seizure (ivPTZ) Test The convulsant pentylenetetrazole (PTZ) (1%), dissolved in saline, was infused (0.005 mL/s) into a tail vein as previously performed. The activity to raise the threshold of ivPTZ-induced myoclonic, clonic, and tonic seizures and concentrations, quantity of infusion (mL), and mouse body weight were recorded.
# [4] = tested on: generalized seizures (MES test) in mice; assay: Maximal electroshock (MES) test; assay type: in vivo; conditions: i.c.v.
# Description: as §1
# The generalized seizures were induced through a stronger stimulus of 50 mA, 60 Hz, 0.2 s, applied via the same corneal electrodes, in each mouse tested. The suppression of tonic hind limb extension, replaced by a clonic seizure, was accepted as a valid criterion for the anticonvulsant potency of the drug.
# Escherichia coli = assay: Antibacterial disc diffusion; assay type: cell-based; conditions: 20 µL of 50 mg/mL on 6 mm disc, 24 h, 37 °C
# Description: Antibacterial activity is carried out with reference to the slightly modified method of Murray et al.. The bacteria used were Staphylococcus aureus, Escherichia coli, and Bacillus cereus. To test the antibacterial activity of 6 peptides, it is carried out as follows: taking 100 μL of spectrum bacteria ([…] bacteria) spread on the nutrient agar medium (NA). Furthermore, a paper disc (6 mm in diameter) was placed and then 20 μL of extract with a concentration of 50 mg/mL was dripped onto it. As a positive control, we used […] of chloramphenicol on the paper disc. DMSO 10% is used as a negative control according to peptide solvents. The treatment was repeated three times and then incubated for 24 h at a temperature of 37 °C. After that, an inhibitory power test measurement was carried out by measuring the diameter of the clear zone formed.
# [5] = isoelectric point = pH at equivalence point, potentiometric titration
# [6] = potentiometric titration with NaOH, aqueous
substance,measurement,setting,value
"H-LVVYPWT-NH2 [S, H-Leu-Val-Val-Tyr-Pro-Trp-Thr-NH2]",pI1,[1]; [5],4.91
same,pI2,[1]; [5],8.31
same,pKa1,[1]; [6],3.15
same,pKa2,[1]; [6],6.78
same,% Protection,[2]; dose 0.62 µg/10 µL,50%
same,No. of Animals Protected/No. of Animals Tested,[2]; dose 0.62 µg/10 µL,3/6
same,% Protection,[2]; dose 1.25 µg/10 µL,50%
same,No. of Animals Protected/No. of Animals Tested,[2]; dose 1.25 µg/10 µL,3/6
same,% Protection,[2]; dose 2.5 µg/10 µL,67% *
same,No. of Animals Protected/No. of Animals Tested,[2]; dose 2.5 µg/10 µL,4/6
same,"Activity against myoclonic twitching, clonic seizures and forelimb tonic seizures (ivPTZ)",[3],anticonvulsant activity
same,% Mortality,"[4]; MES test, dose 0.62 µg/10 µL",0%
same,% Mortality,"[4]; MES test, dose 1.25 µg/10 µL",30%
same,% Mortality,"[4]; MES test, dose 2.5 µg/10 µL",50%
same,% Protection,"[4]; MES test, dose 2.5 µg/10 µL",50%
same,No. of Animals Protected/No. of Animals Tested,"[4]; MES test, dose 2.5 µg/10 µL, 10 min after infusion",3/6
same,Activity in the MES test (in words),[4]; text summary of Tables 4 and 5,inactive
same,"Antibacterial activity against E. coli (inhibitory zone, in words)",Escherichia coli,outperformed peptide analogues
